# Source: ChEMBL document CHEMBL1128876, “Nitrogen transfer in E. coli glucosamine-6P synthase. Investigations using substrate and bisubstrate analogs” (Bioorg Med Chem Lett, 1995)
# Experiments:
# [1] = Tested for inhibition of glucosamine-6P synthase; parameters: species or system Escherichia coli
# [2] = Tested for inhibition of fructose-6P synthase
SMILES,Ki [1] [µM],Ki [2] [µM]
NC(=O)/C=C/C(=O)NCC(N)C(=O)O (centres undefined),0.15,–
NC(CC1CCC(=O)C2OC12)C(=O)O (centres undefined),0.22,–
NC(CO)C(O)C(O)C(O)COP(=O)(O)O (centres undefined),–,25
O=C(O)C1CCC=N1 (racemic),23,–
